Patent US20200206354A1, “DRUG DELIVERY COMPOSITION” (PK MED SAS, priority 2017, published 2020)
Where “and” joins values, the source holds several entries; their conditions need not be identical. Equal values may be shown once. Where a name gives a salt, the structure may show the parent alone.

Tests used:
[1] = Drug integrity after extrusion and release, HPLC peaks compared with non-extruded drug
Method: An Ultimate 3000 HPLC system (Thermofisher Scientific) equipped with Diode Array Detector (DAD-3000(RS)) and a Phenomenex Kinetex EVO C18, LC Column 100×2.1 mm, 2.6 μm with a pore size of 100 Å. The column was controlled to a temperature of 30° C. The mobile phase was a gradient of Ammonium Bicarbonate 20 mM pH9/Acetonitrile (95/5% to 35/65 in 5 min) with a flow rate of 0.75 mL/min. Naltrexone hydrochloride powder was accurately weighed and dissolved in water to give 450 μg/mL solution. Subsequent dilutions were made with water to get concentrations of 7-450 μg/mL. The standard solutions prepared as above were injected in the same conditions of samples. The peak areas of the naltrexone concentration were calculated. The regression of the naltrexone concentration over the peak areas was obtained and used to estimate the amount of naltrexone released from the polymer.

[2] = Lysozyme activity after extrusion, liquid-liquid extraction and Lysozyme activity Kit; format: biochemical
Method: The lysozyme was extracted from the drug delivery composition by liquid-liquid extraction. 50 mg of drug delivery composition were solubilized in 2.5 mL of Dichloromethane. Then 7.5 mL of cold 66 mM potassium phosphate buffer pH6.24 was added. The mix was vigorously vortex. Samples were maintained in ice between each step. After phase separation, aqueous phase was taken off and lysozyme activity was measured using Lysozyme activity Kit (from Sigma-Aldrich).
The lysozyme was extracted from the drug delivery composition by liquid-liquid extraction as described in Example 4 and lysozyme activity was titrated with lysozyme activity kit (from Sigma-Aldrich).

[3] = lysozyme powder from Sigma-Aldrich; cited from earlier work

Compound	degradation of the released drug by the PLA-degrading enzyme ([1]; drug delivery composition with Savinase®)	degradation of naltrexone through the extrusion process ([1]; extruded in PLA at 168° C.)	lysozyme activity after two extrusions (in words) ([2]; Example 4 composition (PLA, PCL masterbatch, Savinase®), extrusions at 78° C. and 165° C., results not shown)	lysozyme activity retained after extrusion ([2]; Example 5.2 composition, 50% PCL and 50% lysozyme, extruded at 78° C.)	denaturation temperature [3]
O=C1CC[C@@]2(O)[C@H]3Cc4ccc(O)c5c4[C@@]2(CCN3CC2CC2)[C@H]1O5 [naltrexone, naltrexone hydrochloride]	without any degradation	not degraded	–	–	–
lysozyme: lysozyme powder from Sigma-Aldrich, 14.7 kDa protein used as model drug	–	–	still exhibits activity	95%	76 °C and 74 °C
